Assays:
MIA PaCa-2 = assay: Cell growth inhibition, resazurin, 48 h; assay type: cell-based; details: Homo sapiens; MIA PaCa-2, 48 h drug exposure
[1] = system: chymotrypsin-like proteasome activity in packed whole blood lysate; assay: Whole blood proteasome activity after dosing (PWBL assay); assay type: in vivo, male Swiss-Webster mice; details: mice
Procedure: In brief, frozen whole blood samples were thawed on ice for one hour, and resuspended in 700 μL of ice cold 5 mM EDTA, pH 8.0 in order to lyse the cells by hypotonic shock. This represents approximately 2-3 times the volume of the packed whole blood cells. Lysis was allowed to proceed for one hour, and the cellular debris was removed by centrifugation at 14,000×g for 10 minutes. The supernatant (Packed Whole Blood Lysate, PWBL) was transferred to a fresh tube, and the pellet discarded. Protein concentration of the PWBL was determined by BCA assay (Pierce) using BSA as a standard.
Proteasome activity was determined by measuring the hydrolysis of a fluorogenic substrate specific for the chymotrypsin-like activity of proteasomes (suc-LLVY-AMC, Bachem Cat. I-1395). […] The rate of hydrolysis in this system is linear for at least one hour. The hydrolysis rate of each sample is then normalized to relative fluorescent units per milligram of protein (RFU/mg).
The vehicle control consisted of 2% DMSO in 10% solutol. […] Packed whole blood cells were collected by centrifugation, washed with PBS, and re-centrifuged. All samples were stored at −80° C. prior to the evaluation of the proteasome activity.
Male Swiss Webster mice (12/group weighing 20-25 g) were injected with LPS (2 mg/kg) by the i.p. route. […]

C[C@@]12OC(=O)[C@]1([C@@H](O)[C@@H]1C=CCCC1)NC(=O)[C@@H]2CCCl [Formula II-16, Salinosporamide A]
EC50 (MIA PaCa-2): 46 nM | proteasomal activity in PWBL ([1]; i.v. or oral, blood 90 min after administration): profound decrease in proteasomal activity in PWBL | activity upon oral administration (PWBL proteasome) ([1]; oral): active upon oral administration

— patent US7572606B1 (Nereus Pharmaceuticals, Inc., priority 2005, dated 2009)
